# Test results: PubChem BioAssay AID2060499 (Molecular Pharmacology Branch, DTP, NCI, 2025)
# Where “and” joins values, the source holds several entries; their conditions need not be identical. Identical values can stand only once.
# Test system: 777334-354-R2-J4-PDC tumor spheroids with HUVEC/MSC, viability
# Assay: Anticancer human tumor 777334-354-R2-J4-PDC patient-derived pancreatic adenocarcinoma cell line growth inhibition [GQUAD]
# Settings: for viability, T/C: stronger effect = lower value
# Description: DNA G-quadruplex Stabilizer Agents in Combinations in Complex Spheroids
# A high-throughput screen of multi-cell type tumor spheroids was designed to identify active combinations of DNA G-quadruplex stabilizer agents and targeted small molecules. Complex spheroids include a stromal component modeled by human endothelial cells (HUVEC) and fibroblasts modeled by human mesenchymal stem cells (MSCs). The concentration ranges selected for each drug and investigational agent were based upon clinically achievable concentrations if the clinical Cmax of the agent was known.
# Compounds. The drugs and investigational agents: pidnarulex (CX-5461; NSC782164), APTO-253 (NSC789042), BRACO-19 (NSC847499), peposertib (NSC802822), ceralasertib (NSC780249), elimusertib (NSC800525), camonsertib (NSC841442), AZD-1390 (NSC803789), olaparib (NSC753686), talazoparib (NSC767125), ART-558 (NSC835418), sotorasib (NSC818433), MRTX-1133 (NSC836407), SN-38 (NSC673596), topotecan (NSC609699), etoposide (NSC141540), doxorubicin (NSC123127), gemcitabine (NSC613327), 5-fluorouracil (NSC19893), paclitaxel (NSC125973), vemurafenib (NSC761431), panobinostat (NSC761190), R-306465 (JNJ-16241199; NSC773264), adavosertib (NSC754352), TP-3654 (NSC805149), carboplatin (NSC241240), KSQ-4279 (NSC840948), and staurosporine (NSC755774) were obtained from the National Cancer Institute (NCI) Developmental Therapeutics Program Chemical Repository (34). The FDA-approved anticancer drug set is available from the NCI Developmental Therapeutics Program. […] The stock solutions were prepared in dimethyl sulfoxide (DMSO, Sigma-Aldrich, St. Louis, MO, cat. D2650) at 800-fold the tested concentration and stored at -70 degrees C prior to their use. All drugs and investigational agents were tested over a range starting from a high concentration at or near the clinical Cmax and decreasing in half-log increments. If the clinical Cmax for an agent had not been determined, the highest concentration tested was 10 microM.
# 2.3 Cell Culture. All cells were maintained in an incubator at 37 degrees C and 5% CO2 with 95% humidity. The PDC lines were cultured according to standard operating procedures established by the NCI PDMR. All PDCs were thawed and cultured in Matrigel-coated flasks prepared with a working solution of 1X Ham's F-12 nutrient mix, without supplementation (Invitrogen, cat. 11765054), 100 U/mL penicillin-streptomycin (Invitrogen, cat. 15140122), and 2.5% Matrigel (Corning Inc., cat. 354248) for the first three passages. The 857933-349-R-J2-PDC line was cultured in 6C/Colon 1B media, which includes advanced DMEM/F-12 (Thermo Fisher Scientific, cat. 12634028), 10 mM HEPES (Thermo Fisher Scientific, cat. 15630080), 1X GlutaMAX supplement (Thermo Fisher Scientific, cat. 35050061), 0.1 mg/mL primocin (InvivoGen, cat. ant-pm-2), 10% defined fetal bovine serum, heat inactivated (HyClone Laboratories Inc., cat. SH30070.03HI), 50% L-WRN conditioned media (ATCC, cat. CRL-3276), 1.25 mM N-Acetyl-L-cysteine (Sigma-Aldrich, cat. A9165), 10 mM nicotinamide (Sigma-Aldrich, cat. N0636), 1X B-27 supplement (Thermo Fisher Scientific, cat. 17504044), 1X N-2 supplement (Thermo Fisher Scientific, cat. 17502048), 10 microM Y-27632 dihydrochloride (Tocris Bioscience, cat. 1254), and 50 ng/mL human EGF recombinant protein (Thermo Fisher Scientific, cat. PHG0311). The 485176-168-R4-J1-PDC line was cultured in Panc media, which includes all 6C/Colon 1B media components plus 100 ng/mL human FGF-10 (Thermo Fisher Scientific, cat. 100-26), 500 nM SB-431542 (Selleckchem, cat. S1067), and gastrin (Tocris, cat. 3006).
# […]
# [1] = curve of first compound, second compound 0.0316 µM
# [2] = curve of first compound, second compound 0.1 µM
# [3] = curve of first compound, second compound 0.316 µM
# [4] = curve of first compound, second compound 1 µM
# [5] = curve of first compound, second compound 3.16 µM
# [6] = curve of first compound, second compound 10 µM
# [7] = second compound 0.0316 µM, first compound 0.0316 µM
# [8] = second compound 0.0316 µM, first compound 0.1 µM
# [9] = second compound 0.0316 µM, first compound 0.316 µM
# [10] = second compound 0.0316 µM, first compound 1 µM
# [11] = second compound 0.0316 µM, first compound 3.16 µM
# [12] = second compound 0.0316 µM, first compound 10 µM
# [13] = second compound 0.1 µM, first compound 0.0316 µM
# [14] = second compound 0.1 µM, first compound 0.1 µM
# [15] = second compound 0.1 µM, first compound 0.316 µM
# [16] = second compound 0.1 µM, first compound 1 µM
# [17] = second compound 0.1 µM, first compound 3.16 µM
# [18] = second compound 0.1 µM, first compound 10 µM
# [19] = second compound 0.316 µM, first compound 0.0316 µM
# [20] = second compound 0.316 µM, first compound 0.1 µM
# [21] = second compound 0.316 µM, first compound 0.316 µM
# [22] = second compound 0.316 µM, first compound 1 µM
# [23] = second compound 0.316 µM, first compound 3.16 µM
# [24] = second compound 0.316 µM, first compound 10 µM
# [25] = second compound 1 µM, first compound 0.0316 µM
# [26] = second compound 1 µM, first compound 0.1 µM
# [27] = second compound 1 µM, first compound 0.316 µM
# [28] = second compound 1 µM, first compound 1 µM
# [29] = second compound 1 µM, first compound 3.16 µM
# [30] = second compound 1 µM, first compound 10 µM
# [31] = second compound 3.16 µM, first compound 0.0316 µM
# [32] = second compound 3.16 µM, first compound 0.1 µM
# [33] = second compound 3.16 µM, first compound 0.316 µM
# [34] = second compound 3.16 µM, first compound 1 µM
# [35] = second compound 3.16 µM, first compound 3.16 µM
# [36] = second compound 3.16 µM, first compound 10 µM
# [37] = second compound 10 µM, first compound 0.0316 µM
# [38] = second compound 10 µM, first compound 0.1 µM
# [39] = second compound 10 µM, first compound 0.316 µM
# [40] = second compound 10 µM, first compound 1 µM
# [41] = second compound 10 µM, first compound 3.16 µM
# [42] = second compound 10 µM, first compound 10 µM
# 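Also: spheroids exposed to compounds for 7 days before readout.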
compound,measurement,setting,value
CCc1c2c(nc3ccc(O)cc13)-c1cc3c(c(=O)n1C2)COC(=O)[C@]3(O)CC,"viability, T/C",compound 0.000999 µM,87.3% and 77.7% and 87.8%
same,"viability, T/C",compound 0.00316 µM,62.7% and 59.7% and 52.4%
same,"viability, T/C",compound 0.00999 µM,38% and 36% and 36.3%
same,"viability, T/C",compound 0.0316 µM,24% and 23.4% and 23.9%
same,"viability, T/C",compound 0.0999 µM,15.9% and 15.4% and 13.3%
same,"viability, T/C",compound 0.316 µM,8.77% and 9.22% and 10.1%
same,IC50,curve of compound,0.00578 µM and 0.00506 µM and 0.00418 µM
CCCS(=O)(=O)Nc1ccc(F)c(C(=O)c2c[nH]c3ncc(-c4ccc(Cl)cc4)cc23)c1F + CN(C)c1ccc(Nc2c3ccc(NC(=O)CCN4CCCC4)cc3nc3cc(NC(=O)CCN4CCCC4)ccc23)cc1,IC50,[1],8.17 µM
same,IC50,[2],8.42 µM
same,IC50,[3],8.71 µM
same,IC50,[4],8.4 µM
same,IC50,[5],8.42 µM
same,IC50,[6],6.42 µM
same,"viability, T/C",[7],93%
same,"viability, T/C",[8],97%
same,"viability, T/C",[9],115%
same,"viability, T/C",[10],115%
same,"viability, T/C",[11],116%
same,"viability, T/C",[12],37.6%
same,"viability, T/C",[13],92.5%
same,"viability, T/C",[14],105%
same,"viability, T/C",[15],127%
same,"viability, T/C",[16],128%
same,"viability, T/C",[17],151%
same,"viability, T/C",[18],37.6%
same,"viability, T/C",[19],101%
same,"viability, T/C",[20],98.5%
same,"viability, T/C",[21],130%
same,"viability, T/C",[22],117%
same,"viability, T/C",[23],152%
same,"viability, T/C",[24],40.5%
same,"viability, T/C",[25],92.4%
same,"viability, T/C",[26],98.6%
same,"viability, T/C",[27],107%
same,"viability, T/C",[28],124%
same,"viability, T/C",[29],137%
same,"viability, T/C",[30],39%
same,"viability, T/C",[31],81.6%
same,"viability, T/C",[32],107%
same,"viability, T/C",[33],97.6%
same,"viability, T/C",[34],122%
same,"viability, T/C",[35],131%
same,"viability, T/C",[36],39.8%
same,"viability, T/C",[37],88%
same,"viability, T/C",[38],87%
same,"viability, T/C",[39],87.9%
same,"viability, T/C",[40],93.6%
same,"viability, T/C",[41],81.1%
same,"viability, T/C",[42],30.1%
CC(C)n1c(=O)n(C)c2cnc3cc(F)c(-c4ccc(OCCCN5CCCCC5)nc4)cc3c21,"viability, T/C",compound 0.0316 µM,105% and 94.1% and 104%
same,"viability, T/C",compound 0.1 µM,106% and 95% and 101%
same,"viability, T/C",compound 0.316 µM,113% (2×) and 111%
same,"viability, T/C",compound 1 µM,104% and 99.3% and 108%
same,"viability, T/C",compound 3.16 µM,110% and 98.5% and 112%
same,"viability, T/C",compound 10 µM,101% and 94.6% and 86.2%
same,IC50,curve of compound,> 10 µM
CC1COCCN1c1cc(-c2ccnn2C)c2ccnc(-c3ccn[nH]3)c2n1 (stereo not given),"viability, T/C",compound 0.0316 µM,94.2% and 88.2% and 75%
same,"viability, T/C",compound 0.1 µM,73.7% and 75.3% and 83.1%
same,"viability, T/C",compound 0.316 µM,65.4% and 62.4% and 50.8%
same,"viability, T/C",compound 1 µM,47.7% and 49.3% and 49.1%
same,"viability, T/C",compound 3.16 µM,37.1% and 41.5% and 48.4%
same,"viability, T/C",compound 10 µM,26.8% and 33.3% and 28.8%
same,IC50,curve of compound,0.901 µM and 1.02 µM and 1.11 µM
COc1ncnc(C2CC2)c1-c1ncc2cnn(Cc3ccc(-c4nc(C(F)(F)F)cn4C(C)C)cc3)c2n1 + Cc1[nH]c2ccc(F)cc2c1-c1nc2c3cccnc3c3ncccc3c2[nH]1,IC50,[1],> 10 µM
same,IC50,[2],> 10 µM
same,IC50,[3],> 10 µM
same,IC50,[4],> 10 µM
same,IC50,[5],0.127 µM
same,IC50,[6],< 0.0316 µM
same,"viability, T/C",[7],104%
same,"viability, T/C",[8],96.9%
same,"viability, T/C",[9],103%
same,"viability, T/C",[10],91.4%
same,"viability, T/C",[11],83%
same,"viability, T/C",[12],112%
same,"viability, T/C",[13],102%
same,"viability, T/C",[14],89.4%
same,"viability, T/C",[15],100%
same,"viability, T/C",[16],92.1%
same,"viability, T/C",[17],89%
same,"viability, T/C",[18],105%
same,"viability, T/C",[19],93%
same,"viability, T/C",[20],85%
same,"viability, T/C",[21],96.7%
same,"viability, T/C",[22],85.4%
same,"viability, T/C",[23],93.1%
same,"viability, T/C",[24],110%
same,"viability, T/C",[25],81.9%
same,"viability, T/C",[26],88.3%
same,"viability, T/C",[27],90.5%
same,"viability, T/C",[28],79.6%
same,"viability, T/C",[29],91%
same,"viability, T/C",[30],79.3%
same,"viability, T/C",[31],56.1%
same,"viability, T/C",[32],58.8%
same,"viability, T/C",[33],37.6%
same,"viability, T/C",[34],43.5%
same,"viability, T/C",[35],49.3%
same,"viability, T/C",[36],49.7%
same,"viability, T/C",[37],39.7%
same,"viability, T/C",[38],35.3%
same,"viability, T/C",[39],38.2%
same,"viability, T/C",[40],18.8%
same,"viability, T/C",[41],33.3%
same,"viability, T/C",[42],35.7%
